Source: patent US11993640B2, “Treating inflammatory lung disease” (United States Government as represented by the Department …, priority 2019, dated 2024)
pIC50: −log10 of the molar value. Entries after “also recorded” stand apart in the source; their conditions may differ. Non-standard residues stand in square brackets, D forms with d. Residues, ends and D or L forms follow the SMILES beside them. *: point of attachment. Phenylacetyl(2,3,4,5,6-F5) = O=C(Cc1c(F)c(F)c(F)c(F)c1F)*; Phe(F5) = N[C@@H](Cc1c(F)c(F)c(F)c(F)c1F)C(=O)O; Phe(4-Cl) = N[C@@H](Cc1ccc(Cl)cc1)C(=O)O; hArg = N=C(N)NCCCC[C@H](N)C(=O)O; 12Ado = NCCCCCCCCCCCC(=O)O; Nle = CCCC[C@H](N)C(=O)O; Orn = NCCC[C@H](N)C(=O)O; Abu = CC[C@H](N)C(=O)O

Assays:
HCC827 cells = assay: In vitro cell viability, lung cancer HCC827; assay type: cell-based, human; conditions: 5 μM, 72 h; relative to MIA602 = 1; Table 3A
Procedure: (§1) The inhibitory effects of the various synthesized GHRH antagonists were tested in cell proliferation assays in various human cancer cell lines including stomach cancer (KATOIII, N87), colon cancer (HT-29), urothelial cancer (J82, RT4), pancreatic cancer (PANC-1, CFPAC-1), prostatic cancer (PC3), breast cancer (MX-1, HCC1806), ovarian cancer (SK-OV-3, OVCAR-3) and lung cancer (HCC827, H460).
(§2) Cell culture. Human cancer cell lines including pancreatic (PANC-1 and CFPAC-1), lung (HCC827 and H460), stomach (NCI-N87 and KATOIII), urothelial (J82, RT4), prostatic (PC3), breast (MX-1 and HCC 1806), colorectal (HT-29), and ovarian (SK-OV-3 and OVCAR-3) were obtained from the American Type Culture Collection (ATCC) and cultured at 37° C. in a humidified 95% air/5% CO2 atmosphere in the medium recommended by ATCC.
(§3) In vitro cell viability. Cell viability was analyzed as follows: cancer cells including pancreatic (PANC-1 and CFPAC-1), lung (HCC827 and H460), stomach (NCI-N87 and KATOIII), urothelial (J82, RT4), prostatic (PC3) and breast (MX-1 and HCC 1806), colorectal (HT-29) and ovarian (SK-OV-3 and OVCAR-3) were grown on 96 well plates to ˜60% confluence, the cells were starved for 24 h in culture medium containing 0.5% FBS. Cells were then treated with GHRH antagonists MIA602 AVR compounds at concentrations of 1, 2.5 or 5 μM, or vehicle (0.1% DMSO) in quintuplicates for 72 hours. The medium was replaced every 48 hours. Cell viability was measured using CellTiter 96 aqueous one solution kit (Promega). Inhibitory effects of tested AVR compounds in comparison to that of MIA602 are presented as inhibitory potency.
(§4) Inhibitory effects of selected AVR compounds in comparison to that of MIA602 are presented as inhibitory potency (e.g., percentage of inhibition). […] The cell lines tested including lung cancer HCC827 (FIG. 2A), pancreatic cancer CFPAC-1 (FIG. 2B), stomach cancer N87 (FIG. 2C), colon cancer HT-29 (FIG. 2D), breast cancers MX-1 and HCC1806 (FIGS. 2E, F). Based on the results of cell proliferation assay after cancer cells were treated with antagonist at concentration of 5 μM for 72H, the relative inhibitory potency of AVR antagonists in comparison to MIA-602 is summarized in Table 3 A and B. Over 60 AVR compounds were tested in 12 cancer cell lines.
(§5) Based on the results of cell proliferation assay after cancer cells were treated with antagonist at concentration of 5 µM for 72H, * at concentration of 2 µM for 72 H.

CFPAC-1 cells = assay: In vitro cell viability, pancreatic cancer CFPAC-1; assay type: cell-based, human; conditions: 5 μM, 72 h; relative to MIA602 = 1; Table 3A
Procedure: as §1, §2, §3, §4, §5

[1] = target: T1, membrane GHRH-receptors on human anterior pituitary cells (Homo sapiens, UniProt Q02643); assay: Competitive receptor binding, displacement of 125I-[His1,Nle27]-hGH-RH(1-32)NH2 from human pituitary membranes
T1 construct: Human pituitary was purchased from the National Hormone and Peptide Program; tissue National Hormone and Peptide Program; host or cells: human pituitary membrane fractions
T1 sequence (Q02643 23-423): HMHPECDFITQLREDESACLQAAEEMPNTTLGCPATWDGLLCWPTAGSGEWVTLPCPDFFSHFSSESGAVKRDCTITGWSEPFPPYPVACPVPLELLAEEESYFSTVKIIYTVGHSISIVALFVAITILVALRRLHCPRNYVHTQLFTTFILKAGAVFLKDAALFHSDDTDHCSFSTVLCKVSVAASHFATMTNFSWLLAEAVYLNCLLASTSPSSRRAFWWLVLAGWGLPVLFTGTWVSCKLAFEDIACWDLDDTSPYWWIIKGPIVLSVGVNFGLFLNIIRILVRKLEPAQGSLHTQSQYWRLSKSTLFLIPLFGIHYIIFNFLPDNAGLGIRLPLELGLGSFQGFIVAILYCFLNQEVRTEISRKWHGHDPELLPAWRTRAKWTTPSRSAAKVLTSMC
Procedure: Receptor binding affinities in vitro. Preparation of human pituitary membrane fractions and receptor binding of analogs of GH-RH were performed (Halmos G, Rekasi Z, Szoke B, Schally A V. (1993) Receptor 3:87-97). Human pituitary was purchased from the National Hormone and Peptide Program. […] Relative affinities compared to hGH-RH(1-29)NH2 were calculated as the ratio of IC50 (dose causing 50% inhibition of specific binding to receptors) of the tested peptides to the IC50 of hGH-RH(1-29)NH2. The values were calculated from technical duplicate tubes.
Nineteen new AVR analogs of GHRH were tested in the receptor binding assay. Table 6 presents the IC50 values of GHRH antagonists to membrane GHRH-receptors binding on human anterior pituitary cells.

pIC50 ([1]; human anterior pituitary membranes, mean of two to three determinations, read-out: IC50)	SMILES	Relative inhibitory potency, Lung HCC827 (HCC827 cells)	Relative inhibitory potency, Pancreatic CFPAC-1 (CFPAC-1 cells)	Binding affinity to membrane receptors of human pituitary cells [1]
9.68	CCCC[C@H](NC(=O)[C@@H](NC(=O)[C@H](CC(=O)O)NC(=O)[C@H](CCC(N)=O)NC(=O)[C@H](CC(C)C)NC(=O)[C@H](CC(C)C)NC(=O)[C@H](CCCN)NC(=O)[C@H](Cc1c[nH]cn1)NC(=O)[C@H](C)NC(=O)[C@H](CO)NC(=O)[C@H](CC(C)C)NC(=O)[C@H](CCC(N)=O)NC(=O)[C@H](CC)NC(=O)[C@H](CC(C)C)NC(=O)[C@@H](NC(=O)[C@H](CCCN)NC(=O)[C@H](Cc1c[nH]cn1)NC(=O)[C@H](Cc1c(F)c(F)c(F)c(F)c1F)NC(=O)[C@H](CCCCNC(=N)N)NC(=O)[C@H](C)NC(=O)[C@@H](NC(=O)[C@H](Cc1ccc(Cl)cc1)NC(=O)[C@@H](NC(=O)[C@H](C)NC(=O)[C@H](CC(=O)O)NC(=O)[C@@H](CCCNC(=N)N)NC(=O)[C@H](Cc1ccc(O)cc1)NC(=O)CCCCCCCCCCCNC(=O)Cc1c(F)c(F)c(F)c(F)c1F)[C@@H](C)CC)[C@@H](C)O)C(C)C)[C@@H](C)CC)C(=O)N[C@H](CCCNC(=N)N)C(=O)N[C@@H](CCCCNC(=N)N)C(=O)NC [AVR-542, 5FPhAC-Ada-Tyr-DArg-Asp-Ala-Ile-Cpa-Thr-Ala-Har-5FPhe-His-Orn-Val-Leu-Abu-Gln-Leu-Ser-Ala-His-Orn-Leu-Leu-Gln-Asp-Ile-Nle-DArg-Har-NHCH3] ({Phenylacetyl(2,3,4,5,6-F5)-12Ado}-Y[dR]DAI[Phe(4-Cl)]TA[hArg][Phe(F5)]H[Orn]VL[Abu]QLSAH[Orn]LLQDI[Nle][dR][hArg]-NHMe)	2.649	1.312	
	CCCC[C@H](NC(=O)[C@@H](NC(=O)[C@H](CC(=O)O)NC(=O)[C@H](CCC(N)=O)NC(=O)[C@H](CC(C)C)NC(=O)[C@H](CC(C)C)NC(=O)[C@H](CCCN)NC(=O)[C@H](Cc1c[nH]cn1)NC(=O)[C@H](C)NC(=O)[C@H](CO)NC(=O)[C@H](CC(C)C)NC(=O)[C@H](CCC(N)=O)NC(=O)[C@H](CC)NC(=O)[C@H](CC(C)C)NC(=O)[C@@H](NC(=O)[C@H](CCCN)NC(=O)[C@H](Cc1c[nH]cn1)NC(=O)[C@H](Cc1c(F)c(F)c(F)c(F)c1F)NC(=O)[C@H](CCCCNC(=N)N)NC(=O)[C@H](C)NC(=O)[C@@H](NC(=O)[C@H](Cc1ccc(Cl)cc1)NC(=O)[C@@H](NC(=O)[C@H](C)NC(=O)[C@H](CC(=O)O)NC(=O)[C@@H](CCCNC(=N)N)NC(=O)[C@H](Cc1ccc(O)cc1)NC(=O)CCCCCCCCCCCNC(=O)Cc1c(F)c(F)c(F)c(F)c1F)[C@@H](C)CC)[C@@H](C)O)C(C)C)[C@@H](C)CC)C(=O)N[C@H](CCCNC(=N)N)C(=O)N[C@@H](CCCCNC(=N)N)C(=O)NCCCCCCCCCCCC(N)=O [AVR-552, 5FPhAC-Ada-Tyr-DArg-Asp-Ala-Ile-Cpa-Thr-Ala-Har-5FPhe-His-Orn-Val-Leu-Abu-Gln-Leu-Ser-Ala-His-Orn-Leu-Leu-Gln-Asp-Ile-Nle-DArg-Har-Ada-NH2] ({Phenylacetyl(2,3,4,5,6-F5)-12Ado}-Y[dR]DAI[Phe(4-Cl)]TA[hArg][Phe(F5)]H[Orn]VL[Abu]QLSAH[Orn]LLQDI[Nle][dR][hArg][12Ado]-NH2)	4.376	1.57	higher binding affinity in comparison to MIA-602; also recorded: highest binding affinities
	CCCC[C@H](NC(=O)[C@@H](NC(=O)[C@H](CC(=O)O)NC(=O)[C@H](CCC(N)=O)NC(=O)[C@H](CC(C)C)NC(=O)[C@H](CC(C)C)NC(=O)[C@H](CCCN)NC(=O)[C@H](Cc1c[nH]cn1)NC(=O)[C@H](C)NC(=O)[C@H](CO)NC(=O)[C@H](CC(C)C)NC(=O)[C@H](CCC(N)=O)NC(=O)[C@H](CC)NC(=O)[C@H](CC(C)C)NC(=O)[C@@H](NC(=O)[C@H](CCCN)NC(=O)[C@H](Cc1c[nH]cn1)NC(=O)[C@H](Cc1ccc(OC)cc1)NC(=O)[C@H](CCCCNC(=N)N)NC(=O)[C@H](C)NC(=O)[C@@H](NC(=O)[C@H](Cc1c(F)c(F)c(F)c(F)c1F)NC(=O)[C@@H](NC(=O)[C@H](C)NC(=O)[C@H](CC(=O)O)NC(=O)[C@@H](CCCNC(=N)N)NC(=O)[C@H](Cc1ccc(O)cc1)NC(=O)CCCCCCCCCCCNC(=O)Cc1c(F)c(F)c(F)c(F)c1F)[C@@H](C)CC)[C@@H](C)O)C(C)C)[C@@H](C)CC)C(=O)N[C@H](CCCNC(=N)N)C(=O)N[C@@H](CCCCNC(=N)N)C(=O)NCCCCCCCCCCCC(N)=O [AVR-553, 5FPhAC-Ada-Tyr-DArg-Asp-Ala-Ile-5FPhe-Thr-Ala-Har-Tyr(Me)-His-Orn-Val-Leu-Abu-Gln-Leu-Ser-Ala-His-Orn-Leu-Leu-Gln-Asp-Ile-Nle-DArg-Har-Ada-NH2] ({Phenylacetyl(2,3,4,5,6-F5)-12Ado}-Y[dR]DAI[Phe(F5)]TA[hArg]Y(Me)H[Orn]VL[Abu]QLSAH[Orn]LLQDI[Nle][dR][hArg][12Ado]-NH2)			higher binding affinity in comparison to MIA-602; also recorded: highest binding affinities
